Laboratory results from patent US20250154169A1, “COMPOUNDS AND METHODS FOR MODULATING SPLICING” (REMIX THERAPEUTICS INC., priority 2021, published 2025).
Like-named read-outs stand apart in the source and are kept apart here.

Experiments:
[1] = tested on: MYB mRNA; assay: Splicing RT-qPCR assay, MYB canonical (CJ) and alternative (AJ) junction mRNA; format: cell-based, human; details: A673 or K562 cells, 24 hours compound treatment, RT-qPCR; for AC50: read-out: MYB AJ (AC50, increase in alternative junction mRNA); for IC50: read-out: MYB CJ (IC50, decrease in canonical junction mRNA)
Procedure, shortened: (§1)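 A673 or K562 cells were treated 24 h at 37 °C with an 11-point 3-fold compound dilution series (top 10 uM, DMSO ≤0.25%). Lysates went to one-step RT-qPCR measuring canonical (CJ) and alternative-exon (AJ) junction transcripts, normalized to GAPDH, GUSB or PPIA.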

[2] = tested on: HTT mRNA; assay: Splicing RT-qPCR assay, HTT canonical (CJ) and alternative (AJ) junction mRNA; format: cell-based, human; details: Homo sapiens, A673 or K562 cells, 24 hours compound treatment; for IC50: 24 h, read-out: HTT CJ (IC50, decrease in canonical junction mRNA); for AC50: read-out: HTT AJ (AC50, increase in alternative junction mRNA)
Procedure, shortened: as §1

Structure (SMILES) | AC50 ([1]; Homo sapiens, 24 h) [µM] | IC50 ([1]; Homo sapiens, 24 h) [µM] | IC50 [2] [µM] | AC50 [2] [µM] | AC50 [1] [µM] | IC50 [1] [µM]
CCn1cc2c(N(C)C3CCNCC3)ccc(C(=O)Nc3cc(F)c4nc(C)cn4c3)c2n1 [Compound 545, 2-ethyl-N-(8-fluoro-2-methylimidazo[1,2-a]pyridin-6-yl)-4-(methyl(piperidin-4-yl)amino)-2H-indazole-7-carboxamide] | 0.1 to 1 | 0.1 to 1 | 1 to 10 | > 10 | – | –
CCn1cc2c(N3CC4(CCNC4)C3)ccc(C(=O)Nc3cc(F)c4nc(C)cn4c3)c2n1 [Compound 491, 4-{2,6-diazaspiro[3.4]octan-2-yl}-2-ethyl-N-{8-fluoro-2-methylimidazo[1,2-a]pyridin-6-yl}indazole-7-carboxamide] | 1 to 10 | 0.1 to 1 | 1 to 10 | > 10 | – | –
Cc1cn2cc(NC(=O)c3ccc(N4CCCC4)c4cn(C)nc34)cc(F)c2n1 [Compound 487, N-{8-fluoro-2-methylimidazo[1,2-a]pyridin-6-yl}-2-methyl-4-(pyrrolidin-1-yl) indazole-7-carboxamide] | 1 to 10 | 1 to 10 | 1 to 10 | 1 to 10 | – | –
Cc1nc2c(C)nc(NC(=O)c3ccc(N4CCNCC4)c4cn(C)nc34)cc2o1 [Compound 405, N-{2,4-dimethyl-[1,3]oxazolo[4,5-c]pyridin-6-yl}-2-methyl-4-(piperazin-1-yl) indazole-7-carboxamide] | 0.1 to 1 | < 0.1 | 1 to 10 | 1 to 10 | – | –
Cc1cn2cc(NC(=O)c3ccc(N4CCOCC4)c4cn(C)nc34)cc(F)c2n1 [Compound 486, N-{8-fluoro-2-methylimidazo[1,2-a]pyridin-6-yl}-2-methyl-4-(morpholin-4-yl) indazole-7-carboxamide] | 0.1 to 1 | 0.1 to 1 | 0.1 to 1 | 0.1 to 1 | – | –
CCn1cc2c(N3CC4(CCNCC4)C3)ccc(C(=O)Nc3cc(F)c4nc(C)cn4c3)c2n1 [Compound 492, 4-{2,7-diazaspiro[3.5]nonan-2-yl}-2-ethyl-N-{8-fluoro-2-methylimidazo[1,2-a]pyridin-6-yl}indazole-7-carboxamide] | 1 to 10 | 0.1 to 1 | 1 to 10 | > 10 | – | –
CCNC1CCN(c2ccc(C(=O)Nc3cc(F)c4nc(C)cn4c3)c3nn(CC)cc23)C1 (stereo in doubt) [Compound 400, (R)-2-ethyl-4-(3-(ethylamino)pyrrolidin-1-yl)-N-(8-fluoro-2-methylimidazo[1,2-a]pyridin-6-yl)-2H-indazole-7-carboxamide] | < 0.1 | < 0.1 | > 10 | > 10 | – | –
CCn1cc2c(N3CC[C@@H](NC)C3)ccc(C(=O)Nc3cc(F)c4nc(C)cn4c3)c2n1 [Compound 393, (R)-2-ethyl-N-(8-fluoro-2-methylimidazo[1,2-a]pyridin-6-yl)-4-(3-(methylamino)pyrrolidin-1-yl)-2H-indazole-7-carboxamide] | – | – | > 10 | > 10 | 0.1 to 1 | 0.1 to 1
CCn1cc2c(N3CC[C@@H](NC)C3)cc(F)c(C(=O)Nc3cc(F)c4nc(C)cn4c3)c2n1 [Compound 479, 2-ethyl-6-fluoro-N-{8-fluoro-2-methylimidazo[1,2-a]pyridin-6-yl}-4-[(3R)-3-(methylamino)pyrrolidin-1-yl]indazole-7-carboxamide; trifluoroacetic acid] | < 0.1 | < 0.1 | 1 to 10 | 1 to 10 | – | –
Cc1cn2cc(NC(=O)c3ccc(N4CCNCC4)c4cn(CC5COC5)nc34)cc(F)c2n1 [Compound 497, N-{8-fluoro-2-methylimidazo[1,2-a]pyridin-6-yl}-2-(oxetan-3-ylmethyl)-4-(piperazin-1-yl) indazole-7-carboxamide] | < 0.1 | < 0.1 | 0.1 to 1 | 0.1 to 1 | – | –
Cc1cn2cc(NC(=O)c3cc(Cl)c(N4CCNCC4)c4cn(C)nc34)cc(F)c2n1 [Compound 528, 5-chloro-N-{8-fluoro-2-methylimidazo[1,2-a]pyridin-6-yl}-2-methyl-4-(piperazin-1-yl) indazole-7-carboxamide] | 0.1 to 1 | 0.1 to 1 | > 10 | > 10 | – | –
CCn1cc2c(N3C[C@@H](C)N[C@@H](C4CC4)C3)ccc(C(=O)Nc3cc(F)c4nc(C)cn4c3)c2n1 [Compound 616, 4-((3S,5R)-3-cyclopropyl-5-methylpiperazin-1-yl)-2-ethyl-N-(8-fluoro-2-methylimidazo[1,2-a]pyridin-6-yl)-2H-indazole-7-carboxamide] | 0.1 to 1 | 0.1 to 1 | 0.1 to 1 | 1 to 10 | – | –
Cc1nc2cc(NC(=O)c3ccc(N4CCNCC4)c4cn(C)nc34)ccn2n1 [Compound 489, 2-methyl-N-{2-methyl-[1,2,4]triazolo[1,5-a]pyridin-7-yl}-4-(piperazin-1-yl) indazole-7-carboxamide] | > 10 | > 10 | > 10 | > 10 | – | –
